Data set [1] deals with Herpes simplex type 1 virus (HFEM strain). Briefly: Plaque reduction assay in virus-infected Vero cells (agarose overlay, 4 days). Format: cell-based. To be noted: Human alphaherpesvirus 1, 96 h, concentration causing a 50% reduction in the number of virus plaques, 4 days incubation, read-out: PDD50 (the source's name). The protocol:
(§1) Vero (African Green Monkey Kidney) cells were grown to confluence in 24 well multidishes, each well being 1.6 cm in diameter. The cells were infected with Herpes simplex type 1 virus (HFEM strain) and overlaid with 0.5 mL of 0.9% agarose (w/v) in maintenance medium. Test compounds prepared in maintenance medium in concentrations ranging from […] in half-log dilution steps, were added in 0.5 mL volume. The virus infected cultures were then incubated at 37^0CC for 4 days before fixing in 4% formaldehyde solution and staining with carbolfuchsin.

Data set [2] can be described thus: Cytotoxicity observed in the plaque reduction assay cultures. The data set is classed as cell-based. To be noted: african green monkey, vero cells; minimum concentration of test compound which caused cytotoxicity; virus-infected Vero cultures, 4 days; read-out: MTD. The protocol: as §1

Where two headings read alike, the source gives them in different places.

Turning to `O=C(OC[C@H]1O[C@@H](n2cc(/C=C/Br)c(=O)[nH]c2=O)C[C@@H]1O)OC[C@H]1O[C@@H](n2cc(/C=C/Br)c(=O)[nH]c2=O)C[C@@H]1O` [Example 1, bis-[5-(E-2-Bromovinyl)-2'-deoxyuridin-5'-yl] carbonate], the IC50 in data set [1] (molar units) was 2.1 µM; in data set [1], 1.5 µg/mL. Moreover, the MCC at 96 h in data set [2] came to 100 µg/mL.

Regarding `CC(=O)O[C@H]1C[C@H](n2cc(/C=C/Br)c(=O)[nH]c2=O)O[C@@H]1COC(=O)OC[C@H]1O[C@@H](n2cc(/C=C/Br)c(=O)n(C(C)=O)c2=O)C[C@@H]1OC(C)=O` [Example 2, 3',3'-Q-3-Triacetyl-bis-[5-(E-2-bromovinyl)-2'-deoxyuridin-5'-yl] carbonate], the IC50 is 15.1 µM in data set [1] (molar units) and 12.4 µg/mL in data set [1]. The MCC at 96 h in data set [2] amounted to 100 µg/mL.

For the compound `CC(=O)O[C@H]1C[C@H](n2cc(/C=C/Br)c(=O)[nH]c2=O)O[C@@H]1COC(=O)OC[C@H]1O[C@@H](n2cc(/C=C/Br)c(=O)[nH]c2=O)C[C@@H]1OC(C)=O` [Example 3, bis-[3'-O-Acetyl-5-(E-2-bromovinyl)-2'-deoxyuridin-5'-yl] carbonate], the figures for the IC50 in data set [1] (molar units) and in data set [1] were 10.9 µM and 8.5 µg/mL, respectively. In addition, in data set [2], the MCC at 96 h was determined as 100 µg/mL.

Turning to `O=C(O[C@H]1C[C@H](n2cc(/C=C/Br)c(=O)[nH]c2=O)O[C@@H]1CO)O[C@H]1C[C@H](n2cc(/C=C/Br)c(=O)[nH]c2=O)O[C@@H]1CO` [Example 4, bis-[5-(E-2-Bromovinyl)-2'-deoxyuridin-3'-yl] carbonate], the IC50 in data set [1] (molar units) was found to be 0.5 µM; in data set [1] it was 0.34 µg/mL. In addition, the MCC at 96 h in data set [2] worked out at 100 µg/mL.

With `O=C(n1c(=O)c(/C=C/Br)cn([C@H]2C[C@H](O)[C@@H](CO)O2)c1=O)n1c(=O)c(/C=C/Br)cn([C@H]2C[C@H](O)[C@@H](CO)O2)c1=O` [Example 5, 3,3-Carbonyl-bis-[5-(E-2-bromovinyl)-2'-deoxyuridine]], the IC50 in data set [1] (molar units) was 0.1 µM; in data set [1], 0.07 µg/mL. The MCC at 96 h in data set [2] is 100 µg/mL.

Regarding `O=C(CCC(=O)OC[C@H]1O[C@@H](n2cc(/C=C/Br)c(=O)[nH]c2=O)C[C@@H]1O)OC[C@H]1O[C@@H](n2cc(/C=C/Br)c(=O)[nH]c2=O)C[C@@H]1O` [Example 6, bis-[5-(E-2-Bromovinyl)-2'-deoxyuridin-5'-yl] succinate], the IC50 in data set [1] (molar units) stood at 6.4 µM; in data set [1] it was 4.8 µg/mL. Besides, in data set [2], the MCC at 96 h came out at 100 µg/mL.

In the case of `O=C(CCCCCCCCC(=O)OC[C@H]1O[C@@H](n2cc(/C=C/Br)c(=O)[nH]c2=O)C[C@@H]1O)OC[C@H]1O[C@@H](n2cc(/C=C/Br)c(=O)[nH]c2=O)C[C@@H]1O` [Example 7, bis-[5-(E-2-Bromovinyl)-2'-deoxyuridin-5'-yl] sebacate], the IC50 in data set [1] (molar units) was 0.14 µM; in data set [1] it was 0.12 µg/mL. The MCC at 96 h in data set [2] is 100 µg/mL.

The values are drawn from patent EP0095292A1, “5-(2-halogenovinyl)-2'-deoxyuridine derivatives, processes for their preparation, pharmaceutical compositions containing them, and their use in treating viral infections"” (BEECHAM GROUP PLC, priority 1982, dated 1983).
